Measurements: patent publication US6583164B1, “Antimycotic drug composition” (Takeda Chemical Industries, Ltd., priority 1998, dated 2003)

Test system: A. fumigatus TIMM1728
Assay: Defensive effect against experimental Aspergillosis infection in neutropenic mice (prolonging life)
Assay type: in vivo
Details: CDF1 female mice made neutropenic with cyclophosphamide; intravenous administration, 5 times; survival recorded for 10 days after infection
Description: Method: 6-week-old CDF1 female mice (n=5) were allowed to have neutropenia by intraperitoneally administering 200 mg/kg of cyclophosphamide, and after 4 days, 0.2 ml liquid of frozen and stored A. fumigatus TIMM1728 conidia, diluted 1000-fold, was inoculated into the tail veins of the mice (6×10^4 CFU/mouse). Compound 12 was dissolved in 5% saccharide solution (aqueous glucose solution) and intravenously administered into the mice 5 times, that is, once in 2 hours after the infection and daily twice for 2 days after the infection. The number of living mice was recorded for 10 days after the infection, to evaluate the effect of prolonging their life.

4-acetoxymethyl-1-[(2R,3R)-2-(2,4-difluorophenyl)-2-hydroxy-3-[2-oxo-3-[4-(1H-tetrazol-1-yl)phenyl]-1-imidazolidinyl]butyl]-1H-1,2,4-triazolium chloride [Compound 12]
Defensive effect (ED50): 1.7 mg/kg
